From patent US9719982B2, “Devices comprising muscle thin films and uses thereof in high throughput assays for determining contractile function” (President and Fellows of Harvard College, priority 2009, dated 2017) come the findings set out here.

Positions of bridges follow the written chain, without caps; N, C: chain ends. No end group written: not given here.

Experiment [1] concerns vascular smooth muscle cells. Kind of experiment: Horizontal muscular thin film (hMTF) contractility assay with vascular smooth muscle cells. The experiment is classed as cell-based. On the procedure: FIG. 12 contrasts the use of fluorescent microscopy and the use of brightfield stereo microscopy of vascular smooth muscle (VSM) horizontal MTFs during an assay of the invention as described in Example 5. The top row depicts fluorescent microscopy photographs of VSM horizontal MTFs comprising fluorescent beads embedded in the PDMS film. […] (A) Photographs taken 5 minutes after the start of the experiment, the films are slightly bent up from the glass due to the initial contraction of VSM. (B) Photographs taken 20 minutes after addition of the vasoconstrictor (Endothilin-1), which causes the VSM to contract and the films to bend up from the glass. […] Actuation and observation of multiple MTFs was carried out in a physiologic solution (e.g., normal Tyrodes solution). The horizontal […]) fabricated with vascular smooth muscle cells in the presence of fluorescent beads were treated with the endothelium-produced vasoconstrictor endothelin-1 (ET-1) followed by the rho-kinase inhibitor HA-1077. […] Quantification and analysis of thin film motion was performed using ImageJ (NIH) and MATLAB software. From the thresholded fluorescent images the length of the projection of the film on the horizontal plane was tracked throughout the contraction and the radius of curvature calculated. Using elasticity theory, the contraction stress necessary to induce the measured changes in curvature were calculated.

Experiment [2] relates to Human umbilical artery vascular smooth muscle. Kind of experiment: Vascular muscular thin film (vMTF) contractility assay, films adhered to PTFE coated posts. The experiment is classed as cell-based. On the procedure:
Human umbilical artery vascular smooth muscle was seeded on thin films at 300 cells/mm^2 in complete M199 medium (M199 supplemented with 10% fetal bovine serum (FBS), penicillin, streptomycin, L-glutamine, glucose and vitamin B12). The tissue was cultured in complete M199 for 48 hours, with a single media change at 24 hours. After 48 hours, the cells were serum starved for an additional 48 hours (M199 supplemented with penicillin, streptomycin, L-glutamine, glucose and vitamin B12, but no FBS).
Muscle thin films were transferred to fresh Tyrode's solution in the testing dish (FIG. 1), which is maintained at 37° C. by a peltier heating system. Films were adhered to Teflon coated posts (FIG. 3) by moving them into close contact using tweezers. The films were imaged using a stereomicroscope outfitted with fluorescent imaging capability. Both brightfield and fluorescent images were captured every thirty seconds. In the experiment shown in FIG. 4, four films were treated with 50 nM endothelin-1 followed by 100 μM HA-1077 (fasudil).
Quantification and analysis of thin film motion was performed using ImageJ (NIH) and MATLAB software. Thresholded fluorescent images (FIG. 4 B) were fit to circles whose radii of curvature could be measured (FIG. 4C). Using elasticity theory, the contraction stress necessary to induce the measured changes in curvature were calculated (FIG. 4D).
Human umbilical artery VSMCs were engineered as anisotropic monolayers aligned parallel to the long axis of the MTF. The vMTFs were adhered to PTFE coated posts via hydrophobic interaction with the PDMS. This arrangement allowed multiple vMTFs to be viewed concurrently. Here, eight vMTFs were tested using this assay. The fluorosphere doped PDMS could be viewed using fluorescent stereomicroscopy. In this arrangement, the films are easily approximated as circular arcs.
The vMTFs were treated with the endothelium-produced vasoconstrictor endothelin-1 followed by the rho-kinase inhibitor HA-1077, in order to calculate all of the relevant stress states of arterial muscle. […] This value represents the resting tension of the tissue. […] The HA-1077 dosage is sufficient to inhibit all myosin light chain phosphorylation, so this value represents the residual stress, or the stress generated by the cytoskeletal elements not involved in the contractile apparatus, but which remains after all other loads are removed.

Consider “endothelin-1 (CSCSSLMDKECVYFCHLDIIW; disulfide 1-15, 3-11; ends not checked; UniProt P05305 53-73, looked up) [ET-1, endothelium-produced vasoconstrictor]”, for which, in experiment [1] (50 nM ET-1 at time 0), the “change in radius of curvature of hMTFs” value is “decrease in their radii of curvature”. Also, the “effect on VSM horizontal MTFs (FIG. 12B)” value in experiment [1] (20 minutes after addition of the vasoconstrictor, films bend up from the glass) is given as “contract”. Also, the “change in radius of curvature of vMTFs” value in experiment [2] (50 nM ET-1) was “decrease in their radii of curvature”. Also, the “increase in cell generated stress” value in experiment [2] (vMTFs stimulated with 50 nM ET-1 at time 0, basal stress 17.1±1.7 kPa) came out at 5.06±0.75 kPa.

As for `O=S(=O)(c1cccc2cnccc12)N1CCCNCC1` [HA-1077, fasudil], the “change in radius of curvature of hMTFs” value in experiment [1] (100 mM HA-1077 following ET-1) is recorded as “rapid increase in radius of curvature”. Further, the “effect on VSM horizontal MTFs (FIG. 12C)” value in experiment [1] (30 minutes after addition of rho-kinase inhibitor, films lie flat on the glass) is listed as “completely relax”. The “change in radius of curvature of vMTFs” value in experiment [2] (100 μM HA-1077 following ET-1) is recorded as “rapid increase in radius of curvature”. In addition, the “stress after inhibition of contraction (residual stress)” value in experiment [2] (treatment with 100 μM HA-1077 following 50 nM ET-1) worked out at 3.1±0.8 kPa.
